Reference: patent US10568877B2, “Preparation and anti-HSV-1 application of quinolinone derivatives” (OCEAN UNIVERSITY OF CHINA, priority 2015, dated 2020)

These compounds were tested on HSV-1 (assay: Antiviral activity against HSV-1 by cytopathic (CPE) assay in Hep-2 cells). Details: Human alphaherpesvirus 1; anti-HSV-1 activity, CPE assay, Hep-2 cells, neutral red OD 540 nm, Reed-Muench.
Type: cell-based, Herpes Simplex Virus 1
Protocol: The antiviral activities against HSV-1 were evaluated by cytopathic (CPE) assay. Hep-2 monolayer cells were treated with trypsin enzyme and transferred to 96-well plates. HSV-1 viruses were seeded with Hep-2 cells in 96-well plates, with 2% RPMI-1640 medium, and incubated under 37° C., 5% CO2. After more than 90% lesions, the virus-infected cells were repeatedly freezed and thawed for 3 times, centrifuged, and stored in the refrigerator at −80° C. Each tested compound was dissolved in 10 μL DMSO to make a homogeneous solution and the solution was diluted 10 times by one-to-one dilution with 2% RPMI-1640 medium. The solution gradient was added to the infected cells incubated in 96-well plates. Ribavirin was used as positive control. Normal cells alone and infected cells alone were used as control. All samples were incubated under 37° C., 5% CO2. Examine pathological changes once every hour, for 24 h. […] OD value was determined at 540 nm. IC50 values of the tested compounds were calculated by Reed-Muench methods.

Compound | IC50
COc1ccc([C@@]2(O)c3c(ccc(/C=C/[C@]4(C)CC[C@@H](O)C(C)(C)O4)c3O)NC(=O)[C@@H]2OC)cc1 [Compound 7] | 2 to 25 µM
CO[C@@H]1C(=O)Nc2ccc(/C=C/[C@]3(C)CC[C@@H](O)[C@@H](C)C3)c(O)c2[C@@]1(O)c1ccccc1 [Compound 3] | 0.05 to 2 µM
COc1ccc([C@@]2(O)c3c(ccc(/C=C/[C@@]4(C)OC(C)(C)[C@H]5C[C@H]54)c3O)NC(=O)[C@@H]2OC)cc1 [Compound 6] | 2 to 25 µM
COc1ccc([C@]2(O)c3c(O)cccc3NC(=O)[C@H]2O)cc1 [Compound 15] | 50 to 100 µM
COc1ccc([C@@]2(O)c3c(ccc(/C=C/[C@@]4(C)OC(C)(C)[C@@H]5C[C@@H]54)c3O)NC(=O)[C@@H]2OC)cc1 [Compound 5] | 2 to 25 µM
COc1ccc([C@@]2(O)c3c(ccc(/C=C/C4(C)CCC(C)(C)C(O)O4)c3O)NC(=O)[C@@H]2OC)cc1 (some centres unmarked) [Compound 10] | 0.05 to 2 µM
CO[C@@H]1C(=O)Nc2ccc(/C=C/[C@]3(C)CCC(=O)[C@@H](C)C3)c(O)c2[C@@]1(O)c1ccccc1 [Compound 2a] | 0.05 to 2 µM
COc1ccc([C@@]2(O)c3c(ccc(/C=C/C(C)=O)c3O)NC(=O)[C@@H]2OC)cc1 [Compound 18] | 25 to 50 µM
COc1ccc(-c2c(O)c(=O)[nH]c3ccccc23)cc1 [Compound 29] | 25 to 50 µM
NC(=O)c1ncn([C@@H]2O[C@H](CO)[C@@H](O)[C@H]2O)n1 [Ribavirin, reference compound] | 50 to 100 µM
COc1ccc([C@@]2(O)c3c(ccc(/C=C/[C@@]4(C)CCC(C)(C)CO4)c3O)NC(=O)[C@@H]2OC)cc1 [Compound 11] | 2 to 25 µM
COc1ccc([C@]2(O)c3ccccc3NC(=O)[C@H]2O)cc1 [Compound 16] | 50 to 100 µM
COc1ccc([C@@]2(O)c3c(ccc(CC=C(C)C)c3O)NC(=O)[C@@H]2OC)cc1 [Compound 17] | 25 to 50 µM
C=C(C)[C@H]1CC[C@](C)(/C=C/c2ccc3c(c2O)[C@@](O)(c2ccccc2)[C@H](OC)C(=O)N3)O1 [Compound 1] | 0.05 to 2 µM
O=c1[nH]c2ccccc2c(-c2ccccc2)c1O [Compound 30] | 25 to 50 µM
C=C(C)/C=C/c1ccc2c(c1O)[C@](O)(c1ccc(OC)cc1)[C@@H](OC)C(=O)N2 [Compound 19] | 25 to 50 µM
CO[C@@H]1C(=O)Nc2ccc(/C=C/[C@@]3(C)CCC(=O)[C@@H](C)C3)c(O)c2[C@@]1(O)c1ccccc1 [Compound 4] | 0.05 to 2 µM

Same assay, conditions: TC50 = median toxic concentration for Hep-2 monolayer cells; IC50 against HSV-1

Compound | TI = TC50/IC50
NC(=O)c1ncn([C@@H]2O[C@H](CO)[C@@H](O)[C@H]2O)n1 [Ribavirin, reference compound] | ++++ (“++++” means TI > 500)
COc1ccc([C@@]2(O)c3c(ccc(/C=C/[C@]4(C)CCC(C)(C)CO4)c3O)NC(=O)[C@@H]2OC)cc1 [Compound 12] | ++ (“++” means TI was between 20 and 100)

Same assay, conditions: anti-HSV-1 activity, CPE assay, Hep-2 cells, neutral red OD 540 nm, Reed-Muench

Compound | IC50
COc1ccc([C@@]2(O)c3c(ccc(/C=C/[C@]4(C)CCC(C)(C)CO4)c3O)NC(=O)[C@@H]2OC)cc1 [Compound 12] | 2 to 25 µM
